From paper PMC4747340, “A new class of small molecule estrogen receptor-alpha antagonists that overcome anti-estrogen resistance” (Oncotarget, 2015)

Assays:
Test in all cases: ER mutation analysis, ERE-TK-Luc reporter in transfected MDA-MB-231 cells
Assay type in all cases: cell-based
[1] = molecular target: T1, ER His356Ala (Homo sapiens, UniProt P03372, H356A); conditions: MDA-MB-231 transfected with mutant ER, E2 10 nM, 24 hr
T1 construct: expressed in transfected cells; host or cells: MDA-MB-231
T1 sequence (P03372 whole entry H356A): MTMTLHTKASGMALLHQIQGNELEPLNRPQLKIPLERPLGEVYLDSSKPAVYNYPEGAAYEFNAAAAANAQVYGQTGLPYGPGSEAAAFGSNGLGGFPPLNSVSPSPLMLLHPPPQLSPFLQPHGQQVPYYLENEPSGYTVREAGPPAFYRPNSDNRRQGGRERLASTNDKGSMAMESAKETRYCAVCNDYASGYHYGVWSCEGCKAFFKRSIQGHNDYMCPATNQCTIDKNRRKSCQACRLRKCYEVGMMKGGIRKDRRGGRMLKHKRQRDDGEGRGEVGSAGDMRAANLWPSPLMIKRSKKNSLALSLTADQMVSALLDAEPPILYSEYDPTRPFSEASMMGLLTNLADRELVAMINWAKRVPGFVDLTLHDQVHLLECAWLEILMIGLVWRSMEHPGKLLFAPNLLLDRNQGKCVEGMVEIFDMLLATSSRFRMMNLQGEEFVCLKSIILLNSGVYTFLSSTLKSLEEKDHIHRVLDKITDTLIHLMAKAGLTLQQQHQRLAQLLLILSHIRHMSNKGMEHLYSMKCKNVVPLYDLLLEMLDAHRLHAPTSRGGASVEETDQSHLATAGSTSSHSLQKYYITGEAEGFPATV
Text: (§1) B., C. Panels B and C show a comparison of the ER interaction of one of our original series of compounds (A7) (B) and one new compounds (48693-K/1) (C). ER is represented by gray ribbon and its residues interacting with the compounds are drawn with wireframe and labeled. […] The hydrogen bond interaction with ARG 394 is shown in green line. […] The cells were harvested for luciferase assays. Luciferase values are expressed as a percent of the +E2 vehicle control and are means ± SEMs of four wells. The data shown in panels D to G are representative of three independent experiments.
(§2) Subconfluent cells in 24-well dishes were transfected overnight with 0.25 μg of each indicated vector plus the ERE-TK-Luc reporter in serum-free DMEM containing Lipofectamine2000 (Life Technologies, Washington, DC). Total transfected DNA was kept constant by addition of control vector. The cells were washed, incubated in phenol red-free DMEM containing 5% charcoal-stripped serum (obtained from the Tissue Culture Shared Resource) (0.2 ml/well) ± E2 (10 nM) ± the indicated compound for 24-hr, and harvested for luciferase assays. For each assay condition was tested in quadrupicate. To monitor the transfection efficiency, cultures were co-transfected with plasmid pRSV-β-gal (Promega, Madison, WI) to visualize transfected cells by X-gal staining.

[2] = molecular target: T2, ER Leu387Ala (Homo sapiens, UniProt P03372, L387A); conditions: MDA-MB-231 transfected with mutant ER, E2 10 nM, 24 hr
T2 construct: expressed in transfected cells; host or cells: MDA-MB-231
T2 sequence (P03372 whole entry L387A): as the sequence (P03372 whole entry H356A) above, with A356H, L387A counted along it
Text: as §1, §2

[3] = molecular target: T3, ER Ile386Ala+Leu387Ala (Homo sapiens, UniProt P03372, I386A/L387A); conditions: MDA-MB-231 transfected with mutant ER, E2 10 nM, 24 hr
T3 construct: expressed in transfected cells; host or cells: MDA-MB-231
T3 sequence (P03372 whole entry I386A/L387A): as the sequence (P03372 whole entry H356A) above, with A356H, I386A, L387A counted along it
Text: as §1, §2

[4] = molecular target: T4, ER Ile386Ala (Homo sapiens, UniProt P03372, I386A); conditions: MDA-MB-231 transfected with mutant ER, E2 10 nM, 24 hr
T4 construct: expressed in transfected cells; host or cells: MDA-MB-231
T4 sequence (P03372 whole entry I386A): as the sequence (P03372 whole entry H356A) above, with A356H, I386A counted along it
Text: as §1, §2

[5] = molecular target: T5, Wild-type ER (Homo sapiens, UniProt P03372); conditions: MDA-MB-231 transfected with wtER, E2 10 nM, 24 hr
T5 construct: expressed in transfected cells; host or cells: MDA-MB-231
T5 sequence (P03372 whole entry): as the sequence (P03372 whole entry H356A) above, with A356H counted along it
Text: as §1, §2

[6] = molecular target: T6, ER Trp393Ala (Homo sapiens, UniProt P03372, W393A); conditions: MDA-MB-231 transfected with mutant ER, E2 10 nM, 24 hr
T6 construct: expressed in transfected cells; host or cells: MDA-MB-231
T6 sequence (P03372 whole entry W393A): as the sequence (P03372 whole entry H356A) above, with A356H, W393A counted along it
Text: as §1, §2

[7] = molecular target: T7, ER Pro325Ala (Homo sapiens, UniProt P03372, P325A); conditions: MDA-MB-231 transfected with mutant ER, E2 10 nM, 24 hr
T7 construct: expressed in transfected cells; host or cells: MDA-MB-231
T7 sequence (P03372 whole entry P325A): as the sequence (P03372 whole entry H356A) above, with P325A, A356H counted along it
Text: as §1, §2

Structure (SMILES): O=C(CC(c1ccccc1)N1CCCCC1)c1ccccc1 (stereo not shown) [35446-L/1, 1,3-diphenyl-3-(piperidin-1-yl)propan-1-one]
- IC50 [1]: 0.8 µM
- IC50 [2]: 5 µM
- IC50 [3]: > 15 µM
- IC50 [4]: 4 µM
- IC50 [5]: 0.8 µM
- IC50 [6]: > 15 µM
- IC50 [7]: 0.9 µM
